Experimental data as given in patent publication US20210330611A1, “THERAPY FOR NEUROLOGICAL DISEASES/DISORDERS” (priority 2020, published 2021).
Where two headings read alike, the source gives them in different places.

Experiments:
human macrophages = test: ROS production (DHE) in fibrin-stimulated human macrophages; assay type: cell-based; conditions: fibrin 24 h, 5 μM inhibitor, FIG. 6b
Procedure: Human macrophage cultures. Human peripheral blood mononuclear cells (PBMCs) were purchased from AllCells, LLC (Alameda, Calif.). To differentiate PBMC into monocyte-derived macrophages, 2×10^6 PBMC/mL were plated in RPMI-1640 media supplemented with 10% FBS, 1% penicillin-streptomycin (Corning), and 50 ng/ml human M-CSF (300-25, Peprotech) in tissue-culture treated dishes (Corning). After 24 h, non-adherent cells were removed, and adherent cells were cultivated for 7-8 additional days at 37° C. in 5% CO2 to promote their full differentiation into macrophages. Oxidant detection with DHE. Intracellular concentrations of ROS were measured using dihydroethidium (DHE) as described (9). Cultured BMDMs or human macrophages were incubated in medium containing 5 μM DHE (Invitrogen) for 30 min Cells were plated on 96-well, black μ-clear-bottom microtiter plates (Greiner Bio-One) pre-coated with 25 μg/ml fibrin. For GGT inhibition, BMDMs or human macrophages were pre-incubated with 5 μM acivicin or GGsTop for 1 h, and the cells were plated on fibrin-coated 96-well plates as described above. PBS was used as vehicle control. Cells were then incubated for 24-48 h and fixed with 4% PFA for 10 min. The DHE fluorescence was detected at an excitation/emission wavelength of 518 nm/605 nm using a SpectraMax M5 microplate reader (Molecular Devices) with SoftMax Pro 5.2 software (Phoenix Technologies Ltd.).

mouse BMDMs = test: ROS production (DHE) in fibrin-stimulated mouse BMDMs; assay type: cell-based; conditions: fibrin 24 h, 5 μM inhibitor, FIG. 6b
Procedure: Bone marrow—derived macrophage cultures. […]. In brief, bone-marrow cells were isolated from tibia and femur of C57BL/6 mice, Ggt1^+/+ mice or Ggt1^dwg/dwg mice and cultured in RPMI-1640 medium supplemented with 10% FBS, 1% penicillin-streptomycin (Corning), and 10 ng/ml murine M-CSF (14-8983-80, Thermo Fisher Scientific). On days 6-7, adherent BMDMs were harvested by adding PBS with 5 mM EDTA to the plates and used for assays.
Human macrophage cultures. Human peripheral blood mononuclear cells (PBMCs) were purchased from AllCells, LLC (Alameda, Calif.). To differentiate PBMC into monocyte-derived macrophages, 2×10^6 PBMC/mL were plated in RPMI-1640 media supplemented with 10% FBS, 1% penicillin-streptomycin (Corning), and 50 ng/ml human M-CSF (300-25, Peprotech) in tissue-culture treated dishes (Corning). After 24 h, non-adherent cells were removed, and adherent cells were cultivated for 7-8 additional days at 37° C. in 5% CO2 to promote their full differentiation into macrophages. Oxidant detection with DHE. Intracellular concentrations of ROS were measured using dihydroethidium (DHE) as described (9). […] The DHE fluorescence was detected at an excitation/emission wavelength of 518 nm/605 nm using a SpectraMax M5 microplate reader (Molecular Devices) with SoftMax Pro 5.2 software (Phoenix Technologies Ltd.).

MOG35-55 EAE = test: Active MOG35-55 EAE, clinical scores; assay type: in vivo, mouse; conditions: prophylactic, 5 mg/kg i.p. daily from day 0, FIG. 14B
renal reperfusion injury = conditions: cited from earlier work
GGT = target: T1, GGT (Mus musculus, UniProt Q60928); test: GGT activity assay in fibrin-stimulated BMDMs (enzymatic kit, ProteoGREEN-gGlu probe); assay type: cell-based; conditions: FIG. 6c, FIG. 13A, B
T1 construct: GGT activity in BMDMs left unstimulated or stimulated with fibrin after acivicin or vehicle control treatment; endogenous in cells; host or cells: mouse bone marrow-derived macrophages (BMDMs), fibrin-stimulated
T1 sequence (Q60928 380-568): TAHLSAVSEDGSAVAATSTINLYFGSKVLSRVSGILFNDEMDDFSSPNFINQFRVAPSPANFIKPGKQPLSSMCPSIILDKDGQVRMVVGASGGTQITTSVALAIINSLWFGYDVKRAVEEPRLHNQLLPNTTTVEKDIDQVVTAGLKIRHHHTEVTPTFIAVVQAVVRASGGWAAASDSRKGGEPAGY
T1 sequence (Q60928 1-379): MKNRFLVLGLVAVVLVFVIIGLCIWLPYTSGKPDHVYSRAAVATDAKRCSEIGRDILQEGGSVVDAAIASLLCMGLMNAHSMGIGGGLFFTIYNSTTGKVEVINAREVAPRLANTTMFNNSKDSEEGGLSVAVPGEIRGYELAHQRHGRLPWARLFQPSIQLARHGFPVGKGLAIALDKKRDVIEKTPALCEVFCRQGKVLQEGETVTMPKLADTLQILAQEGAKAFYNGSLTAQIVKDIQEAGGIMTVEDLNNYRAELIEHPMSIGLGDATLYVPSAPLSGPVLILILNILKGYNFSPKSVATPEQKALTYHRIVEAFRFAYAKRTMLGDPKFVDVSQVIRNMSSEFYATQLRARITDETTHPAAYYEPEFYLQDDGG
Procedure: GGT activity assay. GGT activity was measured using the MaxDiscovery gamma-Glutamyl Transferase (GGT) Enzymatic Assay Kit (Bioo Scientific) according to the manufacturer's protocol. […]. For in vivo GGT activity assay, spinal cord tissues from the onset of MOG35-55 EAE or LPS-injected substantia nigra area at 12 h were prepared. Tissues were homogenized in 0.1 M Tris-HCl and centrifuged at 13,000 g for 30 min at 4° C. The supernatant was collected and subsequently assessed for GGT activity. The absorbance at 405 nm was detected with a SpectraMax M5 microplate reader (Molecular Devices) with SoftMax Pro 5.2 software (Phoenix Technologies Ltd.). The GGT activity in IU/1 was calculated following the manufacturer's protocol by multiplying the average increase in absorbance at 405 nm over 10 min GGT activity was also measured using a fluorescent probe, ProteoGREEN-gGlu (Goryo Chemical, Hokkaido, Japan), according to the manufacturer's protocol. Cultured BMDMs were plated on 96-well, black μ-clear-bottom microtiter plates (Greiner Bio-One) pre-coated with 25 μg/ml fibrin. […] The fluorescence intensity (excitation/emission filter pairs of 488 nm/520 nm) was measured using a SpectraMax M5 microplate reader (Molecular Devices) with SoftMax Pro 5.2 software (Phoenix Technologies).

intracellular GSH = assay type: cell-based, mouse
Procedure: Real-time imaging of glutathione. The real-time GSH dynamics in living BMDMs was determined with the fluorescent GSH probe, RealThiol RT-AM as described (37). Cells were plated on 2-well chamber slide (Nunc) pre-coated with 25 μg/ml fibrin. Cells were stimulated with fibrin with or without 5 μM acivicin or GGsTop. The GSH synthesis inhibitor, buthionine sulfoximine (BSO, Sigma-Aldrich) was used as positive control for reducing intracellular GSH levels at 100 μM. After 24 h incubation, cells were loaded with 1 μM RT-AM probe and were incubated for 5 min before imaging. The cells were kept at 37° C. during the entire experiment. […] For each independent experiment, laser power and detector settings were set using the control/untreated cells incubated with RT-AM alone as reference. All settings were kept constant throughout the experiment. […] The ratio calculated for each treatment was expressed as percentage from that of the untreated cells (control).

in vitro [1] = conditions: rat, Cell Toxicity IC50 (uM) [cFib assay]
[2] = system: fibrin-induced microglia activation; test: Image-based assay of fibrin-induced microglia activation (HTS and dose response); assay type: cell-based, rat
in vitro [3] = conditions: rat
[4] = system: LPS-induced microglia activation; test: Image-based assay of LPS-induced microglia activation (HTS and dose response); assay type: cell-based, rat; conditions: Rattus norvegicus, Microglia
primary rat microglia [5] = conditions: rat
primary rat microglia [6] = conditions: rat; remark: listed apart in the source
primary rat microglia [7] = test: Cell toxicity (dead cells, size <150 μm2) in LPS assay; conditions: read-out: Cell Toxicity IC50 (uM) [LPS assay]; LPS assay
[8] = system: fibrin- and LPS-induced microglia activation; test: cells; assay type: cell-based, rat; conditions: for inhibition at 10 µM: Rattus norvegicus, Microglia
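Wherever Fibrin % cell toxicity is given: share of dead cells sized under 150 µm2 at 10 µM in fibrin-stimulated microglia HTS.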

## COP(=O)(CCC(N)C(=O)O)Oc1cccc(CC(=O)O)c1 (stereo not shown) [GGsTop]
Human macrophages
  ROS generation (DHE) in human macrophages: inhibited
Mouse BMDMs
  ROS generation (DHE) in mouse macrophages: inhibited
MOG35-55 EAE
  neurologic signs: reduced
Renal reperfusion injury
  oxidative stress markers: reduced
  renal reperfusion injury: protected
GGT
  fibrin-induced GGT activity in BMDMs: inhibited
Intracellular GSH
  fibrin-induced degradation of glutathione (RealThiol F405/F488): inhibited

## O=P(O)(O)C(O)(Cn1ccnc1)P(=O)(O)O [Zoledronic acid, reference compound]
In vitro [1]; Table 3
  IC50: > 20 µM
In vitro [1]; cFib assay
  IC50: > 20 µM
[2]
  Fibrin Selectivity: 4
  Fibrin Selectivity (LOG10): 0.55
[2]; Rattus norvegicus, Microglia, 48 h, Table 1, dose response 0.001-20 μM, triplicates, primary rat microglia, 48 h, read-out: Fibrin IC50
  IC50: 2 µM
[2]; Rattus norvegicus, Microglia, Table 3, read-out: Fibrin IC50 (uM) (Suppl. Table 7)
  IC50: 2 µM
[2]; Rattus norvegicus, Microglia, dose response, fibrin-induced microglia activation, read-out: Fibrin IC50
  IC50: 2 µM
[2]; Rattus norvegicus, Microglia, fibrin-induced microglia activation, dose response, read-out: Fibrin IC50 (uM) (Suppl. Table 7)
  IC50: 2 µM
[2]; Rattus norvegicus, Microglia, primary microglia HTS, fibrin stimulation, increased cell size (>800 μm^2) as marker of activation, read-out: Fibrin % inhibition
  inhibition at 10 µM: 83%
In vitro [3]
  IC50: > 20 µM
[4]; 48 h, Table 1, dose response 0.001-20 μM, triplicates, primary rat microglia, 48 h, read-out: LPS IC50
  IC50: 8 µM
[4]; 48 h, primary microglia HTS, LPS stimulation, increased cell size (>800 μm^2) as marker of activation, read-out: LPS % inhibition
  inhibition at 10 µM: 49%
[4]; LPS-induced microglia activation, dose response, read-out: LPS IC50 (uM) (Suppl. Table 7)
  IC50: 8 µM
[4]; Table 3, read-out: LPS IC50 (uM) (Suppl. Table 7)
  IC50: 8 µM
[4]; dose response, LPS-induced microglia activation, read-out: LPS IC50
  IC50: 8 µM
Primary rat microglia [5]
  Fibrin % cell toxicity: 2%
Primary rat microglia [6]
  LPS % cell toxicity: 1%
Primary rat microglia [7]
  IC50: > 20 µM
[8]; HTS of 1907 compounds, quadrant by fibrin and LPS inhibition
  Quadrant (FIG. 5b): Q3
[8]; Table 3, read-out: Cherry-picked Hit (Suppl. Table 7)
  inhibition at 10 µM: > 50%
[8]; HTS hit classification, read-out: Hit
  inhibition at 10 µM: > 50%
[8]; Table 1, screen at 10 μM
  Quadrant (FIG. 5b): Q3
[8]; Table 3, screen at 10 μM
  Quadrant (FIG. 5b): Q3
[8]; quadrant by fibrin and LPS inhibition in HTS of 1907 compounds
  Quadrant (FIG. 5b): Q3
